Results: patent publication US20170112714A1, “METHOD FOR ALLEVIATING OR TREATING ANAPHYLAXIS” (Korea Bio Medical Science Institute, priority 2015, published 2017)

How the values were obtained:
Type in all cases: in vivo
mice = assay: Compound 48/80-induced systemic anaphylaxis, mortality; settings: ketotifen orally 1 mg/kg 1 h before compound 48/80 (6.5 mg/kg i.p.); vs compound 48/80 alone, p<0.01
Procedure: The original stock of male ICR (4 weeks old) was purchased from the Dae-Han Experimental Animal Center (Eumsung, Chungbuk, Republic of Korea). Animal care and experimental procedures used were approved by the Animal Care Committee of Kyung Hee University [KHUASP (SE)-12-019].
(§1) Mice were given an intraperitoneal (i.p.) injection of compound 48/80 (6.5 mg/kg). The period used to observe mortality was based on the results of a pretest during which mice died within 30 min of administration. […] Mortality was monitored for 40 min post-injection. […] Three independent experiments were performed (n=15/group).
Jajinmori-jangdan and Hwimori-jangdan (rhythmic cycles) of Buk music were played by Kyung-Ja Ko. The playing conditions were as follows: Jajinmori-jangdan rhythmic cycle of twelve beats, […] (12/8 metre, ? =96 to 144), in an allegro moderated tempo and Hwimori-jangdan rhythmic cycle of 4 beats, 2+2 (4/4 metre, ? =208 to 230), in a presto tempo. The sound of a Buk is a match for the frequency of a baritone voice (139.9 to 355.2 Hz). […] Mice were exposed to Buk music or white noise for 5 min. All experiments were carried out in an environment free of other sounds. Buk music was recorded and copied using a MP3 player to ensure precisely the same music was played for mice in all treatment groups.

VEGF mRNA = VEGF mRNA levels in brain by quantitative real-time PCR; settings: ketotifen in compound 48/80 mice, p<0.05
Procedure: as §1
Quantitative real-time PCR was performed using SYBR Green master mix and mRNA levels were analyzed using an ABI StepOne real time PCR System (Applied Biosystems, Foster City, Calif., USA). Primer sequences for the reference gene GAPDH and genes of interest were as follows: GAPDH (5′ […] 3′, SEQ ID NO.1; 5′ […] 3′, SEQ ID NO.2); HIF-1α (5′ […] 3′, SEQ ID NO.3; 5′ […] 3′, SEQ ID NO.4); VEGF (5′ […] 3′, SEQ ID NO.5; 5′ […] 3′, SEQ ID NO.6). Typical profile times used were as follows; initial step 95° C. for 10 min followed by a second step at 95° C. for 15 s and 60° C. for 30 s for 40 cycles. Levels of target mRNAs were normalized versus GAPDH. Data were analyzed using the ΔΔCT method.

TNF-α = TNF-α protein levels in brain by ELISA; settings: ketotifen in compound 48/80 mice
Procedure: as §1
Cytokines levels in serum and brain were analyzed by ELISA, as described previously. Cytokine levels in brain were divided according to the total protein levels, which were estimated using a BCA protein assay kit (Pierce, Rockford, Ill., USA).

ER-β mRNA = ER-β mRNA levels in brain by quantitative real-time PCR; settings: ketotifen in compound 48/80 administered mice, p<0.05
HIF-1α = HIF-1α protein levels in brain by Western blotting; settings: oral ketotifen in compound 48/80 mice, p<0.05; FIG. 3 (protein and mRNA)
Procedure: as §1
Western blot analysis was performed on brain tissue extracts, as previously described in (Semenza GL: Hypoxia-inducible factor 1: oxygen homeostasis and disease pathophysiology. Trends Mol Med 2001; 7:345-350).

In the case of `CN1CCC(=C2c3ccccc3CC(=O)c3sccc32)CC1` [ketotifen], the “mortality induced by compound 48/80” value (mice) is reported as “reduced mortality”, the “brain VEGF mRNA levels” value (VEGF mRNA) is reported as “significantly reduced” and the “TNF-α protein levels in brain” value (TNF-α) is reported as “significantly reduced”. The “ER-β mRNA levels in brain” value (ER-β mRNA) was “significantly increased” and the “HIF-1α levels in brain” value (HIF-1α) was “significantly reduced”.
